Source: ChEMBL document CHEMBL1201862, “PubChem BioAssay data set” (2004)
Calls of active or inactive are those of the source.

Columns and labels:
[1] = biological target: T1, Methionyl-tRNA synthetase, putative (Trypanosoma brucei brucei, UniProt Q38C91); assay type: functional, Trypanosoma brucei brucei strain 927/4 GUTat10.1
T1 sequence (Q38C91 whole entry): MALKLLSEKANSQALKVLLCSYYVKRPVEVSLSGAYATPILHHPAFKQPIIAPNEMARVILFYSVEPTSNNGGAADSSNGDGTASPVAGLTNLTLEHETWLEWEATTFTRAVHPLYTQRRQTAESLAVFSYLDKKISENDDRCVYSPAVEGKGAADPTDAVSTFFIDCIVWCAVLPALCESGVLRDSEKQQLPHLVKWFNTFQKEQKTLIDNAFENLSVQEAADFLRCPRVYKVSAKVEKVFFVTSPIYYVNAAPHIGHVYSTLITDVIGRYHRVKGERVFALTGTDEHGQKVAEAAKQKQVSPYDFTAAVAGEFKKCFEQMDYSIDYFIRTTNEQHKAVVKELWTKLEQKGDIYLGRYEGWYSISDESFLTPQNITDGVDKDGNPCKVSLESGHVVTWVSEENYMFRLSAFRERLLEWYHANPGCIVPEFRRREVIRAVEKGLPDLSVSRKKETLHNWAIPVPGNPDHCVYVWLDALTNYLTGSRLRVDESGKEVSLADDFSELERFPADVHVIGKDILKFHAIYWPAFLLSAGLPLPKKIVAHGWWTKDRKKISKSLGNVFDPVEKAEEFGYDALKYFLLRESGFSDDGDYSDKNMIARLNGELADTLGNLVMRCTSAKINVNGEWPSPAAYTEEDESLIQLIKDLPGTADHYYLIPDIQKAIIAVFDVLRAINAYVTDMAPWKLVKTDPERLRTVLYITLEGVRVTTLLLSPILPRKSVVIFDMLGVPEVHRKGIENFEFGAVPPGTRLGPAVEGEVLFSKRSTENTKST

[2] = biological target: T1, Methionyl-tRNA synthetase, putative; assay type: functional, Trypanosoma brucei brucei strain 927/4 GUTat10.1; remark: listed apart in the source
[3] = Counterscreen for inhibitors of Trypanosoma brucei methionyl tRNA synthetase (MetRS): Luminescence-based cell-based high throughput dose response assay to identify compounds that are cytotoxic to Jurkat human T lymphocyte cells.; assay type: functional
cells [4] = assay type: functional, cell-based
cells [5] = assay type: functional, cell-based; remark: listed apart in the source
[6] = biological target: T2, Long-chain-fatty-acid--AMP ligase FadD28 (Mycobacterium tuberculosis, UniProt P9WQ59); experiment: Fluorescence polarization aasay to screen for inhibitors that compete for the binding of FadD28 to a bisubstrate Measured in Biochemical System Using Plate Reader - 2147-01_Inhibitor_Dose_CherryPick_Activity.; assay type: functional, Mycobacterium tuberculosis H37Rv
T2 sequence (P9WQ59 whole entry): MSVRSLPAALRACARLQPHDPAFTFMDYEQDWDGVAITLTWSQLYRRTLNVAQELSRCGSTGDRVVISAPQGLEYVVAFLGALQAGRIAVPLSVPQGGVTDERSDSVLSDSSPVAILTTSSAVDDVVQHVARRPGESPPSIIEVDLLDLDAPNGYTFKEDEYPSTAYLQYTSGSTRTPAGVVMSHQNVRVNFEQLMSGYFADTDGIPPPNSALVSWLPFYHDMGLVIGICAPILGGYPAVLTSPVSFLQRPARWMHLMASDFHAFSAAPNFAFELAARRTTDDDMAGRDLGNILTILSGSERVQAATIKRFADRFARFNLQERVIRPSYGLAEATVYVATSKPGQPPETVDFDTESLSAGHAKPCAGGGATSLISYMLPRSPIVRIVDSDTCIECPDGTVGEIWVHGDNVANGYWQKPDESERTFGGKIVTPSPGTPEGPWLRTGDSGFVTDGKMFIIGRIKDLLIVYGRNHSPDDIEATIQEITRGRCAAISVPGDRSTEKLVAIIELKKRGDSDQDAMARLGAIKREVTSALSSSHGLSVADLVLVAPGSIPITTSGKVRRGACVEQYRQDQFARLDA

[7] = biological target: Arf-GAP with SH3 domain, ANK repeat and PH domain-containing protein 1 (Homo sapiens, UniProt Q9ULH1); assay type: functional;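 also: biochemical fluorescence polarization dose–response screen measuring inhibition of ASAP1; ASAP1 GAP domain stimulating GTP hydrolysis by truncated human ARF1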
Sequence of Arf-GAP with SH3 domain, ANK repeat and PH domain-containing protein 1 (Q9ULH1 whole entry, the tested form may be a part): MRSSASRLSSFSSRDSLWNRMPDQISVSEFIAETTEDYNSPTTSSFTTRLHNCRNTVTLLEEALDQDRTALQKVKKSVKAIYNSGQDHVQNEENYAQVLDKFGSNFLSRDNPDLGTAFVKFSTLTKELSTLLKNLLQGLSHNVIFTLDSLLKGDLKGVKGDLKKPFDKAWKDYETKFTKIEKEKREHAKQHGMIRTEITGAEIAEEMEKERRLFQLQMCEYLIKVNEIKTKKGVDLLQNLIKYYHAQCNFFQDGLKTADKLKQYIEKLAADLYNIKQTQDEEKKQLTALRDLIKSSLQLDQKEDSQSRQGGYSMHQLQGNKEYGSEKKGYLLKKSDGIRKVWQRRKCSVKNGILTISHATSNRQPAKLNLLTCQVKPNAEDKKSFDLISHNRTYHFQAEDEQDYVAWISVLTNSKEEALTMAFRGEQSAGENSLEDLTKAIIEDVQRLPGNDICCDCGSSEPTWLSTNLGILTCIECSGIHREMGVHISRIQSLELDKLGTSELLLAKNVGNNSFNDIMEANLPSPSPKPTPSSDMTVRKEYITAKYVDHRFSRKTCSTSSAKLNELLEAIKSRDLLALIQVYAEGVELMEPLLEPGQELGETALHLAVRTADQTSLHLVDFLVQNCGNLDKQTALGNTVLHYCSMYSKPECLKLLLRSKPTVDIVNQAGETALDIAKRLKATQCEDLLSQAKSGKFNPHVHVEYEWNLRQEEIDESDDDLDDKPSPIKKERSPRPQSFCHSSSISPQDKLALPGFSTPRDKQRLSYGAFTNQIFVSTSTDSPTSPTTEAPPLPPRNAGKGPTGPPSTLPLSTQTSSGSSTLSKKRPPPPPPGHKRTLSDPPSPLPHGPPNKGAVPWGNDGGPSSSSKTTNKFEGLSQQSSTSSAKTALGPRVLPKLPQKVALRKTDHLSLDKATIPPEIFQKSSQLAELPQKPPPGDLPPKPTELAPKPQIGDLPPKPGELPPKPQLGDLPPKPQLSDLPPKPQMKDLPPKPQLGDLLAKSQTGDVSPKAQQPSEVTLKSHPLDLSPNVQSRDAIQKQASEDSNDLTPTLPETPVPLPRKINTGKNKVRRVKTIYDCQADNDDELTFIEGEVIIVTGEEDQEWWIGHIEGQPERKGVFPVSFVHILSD

Cytochrome P450 1A2 = biological target: T3, Cytochrome P450 1A2 (Homo sapiens, UniProt P05177);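 also: PubChem cytochrome P450 panel assay, CYP1A2 panel member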
T3 sequence (P05177 whole entry): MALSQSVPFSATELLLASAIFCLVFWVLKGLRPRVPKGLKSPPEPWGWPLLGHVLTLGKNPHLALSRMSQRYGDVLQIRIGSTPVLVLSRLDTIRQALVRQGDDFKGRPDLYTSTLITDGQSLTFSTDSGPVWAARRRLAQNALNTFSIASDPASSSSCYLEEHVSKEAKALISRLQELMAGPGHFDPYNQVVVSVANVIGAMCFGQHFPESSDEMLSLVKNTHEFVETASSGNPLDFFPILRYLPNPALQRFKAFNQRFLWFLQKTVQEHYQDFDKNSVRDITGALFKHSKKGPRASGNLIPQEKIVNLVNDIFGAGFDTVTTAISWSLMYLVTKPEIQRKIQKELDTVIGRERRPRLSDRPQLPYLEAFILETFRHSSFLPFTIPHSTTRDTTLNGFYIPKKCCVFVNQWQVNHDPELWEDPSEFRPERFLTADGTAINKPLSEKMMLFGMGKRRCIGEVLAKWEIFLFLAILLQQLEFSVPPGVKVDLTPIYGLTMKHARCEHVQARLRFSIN

Cytochrome P450 3A4 = Cytochrome P450 3A4 (Homo sapiens, UniProt P08684);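 also: CYP3A4 tested as one member of a cytochrome P450 panel screen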
Sequence of Cytochrome P450 3A4 (P08684 whole entry): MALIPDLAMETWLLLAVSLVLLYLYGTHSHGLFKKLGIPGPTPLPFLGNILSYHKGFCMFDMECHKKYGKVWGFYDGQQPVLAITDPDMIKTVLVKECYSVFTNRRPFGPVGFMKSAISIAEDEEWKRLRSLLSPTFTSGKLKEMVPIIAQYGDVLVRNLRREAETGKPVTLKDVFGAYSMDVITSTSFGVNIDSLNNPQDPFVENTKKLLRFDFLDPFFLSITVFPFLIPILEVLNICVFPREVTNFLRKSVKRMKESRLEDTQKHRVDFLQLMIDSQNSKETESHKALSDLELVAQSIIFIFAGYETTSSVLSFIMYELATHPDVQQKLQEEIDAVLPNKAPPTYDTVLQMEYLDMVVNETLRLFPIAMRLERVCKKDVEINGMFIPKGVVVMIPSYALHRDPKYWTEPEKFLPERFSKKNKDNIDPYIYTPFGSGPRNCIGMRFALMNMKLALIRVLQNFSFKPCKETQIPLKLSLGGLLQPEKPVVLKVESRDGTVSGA

[8] = biological target: DNA dC->dU-editing enzyme APOBEC-3A (Homo sapiens, UniProt P31941); experiment: Dose Response confirmation of small molecule APOBEC3A DNA Deaminase Inhibitors via a fluorescence-based single-stranded DNA deaminase assay. [Related pubchem assays (depositor defined):AID493011, AID493024]; assay type: functional
Sequence of DNA dC->dU-editing enzyme APOBEC-3A (P31941 whole entry): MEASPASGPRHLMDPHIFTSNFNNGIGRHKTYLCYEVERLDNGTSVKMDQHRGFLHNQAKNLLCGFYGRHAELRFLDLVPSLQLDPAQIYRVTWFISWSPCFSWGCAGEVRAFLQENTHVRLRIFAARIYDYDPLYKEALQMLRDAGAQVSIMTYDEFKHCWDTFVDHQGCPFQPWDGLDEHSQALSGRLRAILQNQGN

[9] = biological target: T4, Heat shock factor protein 1 (Mus musculus, UniProt P38532); experiment: inhibition of MG132-induced HSE-luciferase signal, confirmation, cell-based, NIH3T3, luminescence, dose retest (AID 2382); assay type: functional;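 also: NIH3T3 fibroblasts with HSF1-driven luciferase reporter stressed by proteasome inhibitor MG132; luminescence from HSF1-driven luciferase expression after 8 hours of MG132 stress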
T4 sequence (P38532 whole entry): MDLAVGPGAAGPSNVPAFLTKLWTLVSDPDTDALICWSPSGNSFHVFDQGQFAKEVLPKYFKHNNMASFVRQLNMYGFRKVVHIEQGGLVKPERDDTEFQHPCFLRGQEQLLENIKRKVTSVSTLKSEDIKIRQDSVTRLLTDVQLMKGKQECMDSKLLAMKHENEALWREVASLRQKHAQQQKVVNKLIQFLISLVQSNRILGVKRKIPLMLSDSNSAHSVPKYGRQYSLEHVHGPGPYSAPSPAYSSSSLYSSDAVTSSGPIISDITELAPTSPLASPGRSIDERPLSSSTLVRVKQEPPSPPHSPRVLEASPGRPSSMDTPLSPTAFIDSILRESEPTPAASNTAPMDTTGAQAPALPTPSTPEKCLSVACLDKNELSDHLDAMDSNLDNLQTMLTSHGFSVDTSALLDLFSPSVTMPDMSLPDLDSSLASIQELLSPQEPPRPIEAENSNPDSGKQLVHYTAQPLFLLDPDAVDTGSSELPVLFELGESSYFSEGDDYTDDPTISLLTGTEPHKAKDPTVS

[10] = biological target: DNA dC->dU-editing enzyme APOBEC-3G (Homo sapiens, UniProt Q9HC16); assay type: functional;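 also: Dose-response counterscreen measuring inhibition of APOBEC3G DNA deaminase activity, run while confirming APOBEC3A inhibitors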
Sequence of DNA dC->dU-editing enzyme APOBEC-3G (Q9HC16 whole entry): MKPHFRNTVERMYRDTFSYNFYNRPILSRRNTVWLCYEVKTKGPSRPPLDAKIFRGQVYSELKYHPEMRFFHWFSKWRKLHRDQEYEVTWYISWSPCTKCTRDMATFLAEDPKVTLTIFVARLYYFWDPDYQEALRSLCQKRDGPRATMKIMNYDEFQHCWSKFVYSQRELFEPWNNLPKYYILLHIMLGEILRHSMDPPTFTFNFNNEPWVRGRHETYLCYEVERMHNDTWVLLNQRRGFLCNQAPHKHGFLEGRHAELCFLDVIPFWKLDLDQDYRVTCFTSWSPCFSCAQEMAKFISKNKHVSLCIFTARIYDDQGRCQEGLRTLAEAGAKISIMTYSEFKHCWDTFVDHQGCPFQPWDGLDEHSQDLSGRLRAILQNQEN

[11] = biological target: T5, Zinc finger protein mex-5 (Caenorhabditis elegans, UniProt Q9XUB2); experiment: MEX-5/TCR-2 RNA interaction inhibitors, dose response, biochemical, C. elegans, fluorescence polarization (AID 1960)
T5 sequence (Q9XUB2 whole entry): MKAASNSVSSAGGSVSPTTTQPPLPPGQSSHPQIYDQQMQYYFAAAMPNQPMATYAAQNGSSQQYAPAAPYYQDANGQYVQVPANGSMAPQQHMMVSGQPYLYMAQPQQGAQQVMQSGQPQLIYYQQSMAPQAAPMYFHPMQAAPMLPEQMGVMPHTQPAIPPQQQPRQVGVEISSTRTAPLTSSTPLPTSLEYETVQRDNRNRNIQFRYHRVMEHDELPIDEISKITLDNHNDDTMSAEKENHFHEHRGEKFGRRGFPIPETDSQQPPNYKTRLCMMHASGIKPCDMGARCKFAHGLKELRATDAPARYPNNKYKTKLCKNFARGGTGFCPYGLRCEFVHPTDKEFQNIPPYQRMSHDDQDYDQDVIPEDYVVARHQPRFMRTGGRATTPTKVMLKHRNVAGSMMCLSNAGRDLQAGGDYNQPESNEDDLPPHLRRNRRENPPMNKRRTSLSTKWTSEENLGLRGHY

[12] = biological target: T6, Histone-lysine N-methyltransferase NSD2 (Homo sapiens, UniProt O96028); assay type: biochemical
T6 sequence (O96028 whole entry): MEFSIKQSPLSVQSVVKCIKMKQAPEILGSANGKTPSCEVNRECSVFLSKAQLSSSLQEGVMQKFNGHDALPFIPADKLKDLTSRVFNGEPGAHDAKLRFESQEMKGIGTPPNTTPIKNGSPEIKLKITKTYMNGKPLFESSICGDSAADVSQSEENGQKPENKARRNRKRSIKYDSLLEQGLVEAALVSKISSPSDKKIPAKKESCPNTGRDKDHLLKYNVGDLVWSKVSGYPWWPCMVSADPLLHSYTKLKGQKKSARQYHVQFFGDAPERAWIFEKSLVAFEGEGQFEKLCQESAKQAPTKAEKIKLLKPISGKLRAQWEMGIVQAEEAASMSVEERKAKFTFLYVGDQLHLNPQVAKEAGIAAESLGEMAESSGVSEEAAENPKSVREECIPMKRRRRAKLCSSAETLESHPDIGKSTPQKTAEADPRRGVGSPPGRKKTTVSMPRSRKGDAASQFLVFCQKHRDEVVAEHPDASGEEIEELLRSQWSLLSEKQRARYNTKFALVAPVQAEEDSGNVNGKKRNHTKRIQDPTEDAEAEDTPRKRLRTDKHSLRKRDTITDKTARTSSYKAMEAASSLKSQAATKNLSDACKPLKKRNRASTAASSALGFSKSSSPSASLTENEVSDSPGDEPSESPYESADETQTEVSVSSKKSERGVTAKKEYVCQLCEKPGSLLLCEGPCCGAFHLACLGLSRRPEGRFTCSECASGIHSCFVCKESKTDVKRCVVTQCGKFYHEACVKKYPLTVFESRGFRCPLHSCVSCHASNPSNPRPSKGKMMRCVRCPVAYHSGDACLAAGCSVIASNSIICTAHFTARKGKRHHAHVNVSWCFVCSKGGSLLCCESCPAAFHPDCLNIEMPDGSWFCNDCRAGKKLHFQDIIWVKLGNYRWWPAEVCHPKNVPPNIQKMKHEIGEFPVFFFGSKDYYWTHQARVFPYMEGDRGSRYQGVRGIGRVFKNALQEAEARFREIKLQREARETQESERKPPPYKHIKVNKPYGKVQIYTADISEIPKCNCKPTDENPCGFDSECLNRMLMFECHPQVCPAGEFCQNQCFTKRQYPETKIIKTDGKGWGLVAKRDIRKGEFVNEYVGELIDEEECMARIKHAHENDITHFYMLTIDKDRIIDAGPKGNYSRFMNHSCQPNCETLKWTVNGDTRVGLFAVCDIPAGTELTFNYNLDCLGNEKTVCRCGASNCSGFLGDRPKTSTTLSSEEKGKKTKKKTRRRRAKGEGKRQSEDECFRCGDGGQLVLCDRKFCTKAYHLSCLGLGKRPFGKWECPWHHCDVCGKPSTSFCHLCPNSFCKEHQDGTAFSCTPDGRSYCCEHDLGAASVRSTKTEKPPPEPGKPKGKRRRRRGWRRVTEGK

[13] = biological target: T7, RNA-binding protein pos-1 (Caenorhabditis elegans, UniProt G5EF15); experiment: inhibitors of POS-1/mex-3 RNA binding, dose response, biochemical, fluorescence polarization (AID 1964);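 also: purified POS-1 fused to maltose binding protein made in E. coli; potency of compounds blocking POS-1 binding to fluorescent RNA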
T7 sequence (G5EF15 whole entry): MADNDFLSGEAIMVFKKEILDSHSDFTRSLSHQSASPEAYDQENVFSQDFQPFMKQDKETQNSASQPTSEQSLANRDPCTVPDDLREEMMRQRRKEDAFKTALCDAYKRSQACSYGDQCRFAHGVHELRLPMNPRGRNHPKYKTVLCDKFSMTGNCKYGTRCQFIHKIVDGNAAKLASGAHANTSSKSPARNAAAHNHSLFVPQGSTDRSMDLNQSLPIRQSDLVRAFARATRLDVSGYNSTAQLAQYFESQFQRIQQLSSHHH

Compound: Cn1nc(C(F)(F)F)c(-c2cccc(C(F)(F)F)c2)c1NC(=O)Nc1ccc(F)cc1
- IC50 [1]: 10.4 µM (inactive)
- IC50 [2]: 119 µM (inactive)
- IC50 [3]: 28.9 µM (inactive)

Compound: Oc1c(C(c2ccc(F)cc2)N2CCc3ccccc3C2)sc2ncnn12 (configuration not stated)
- IC50 (cells [4]): > 29.9 µM (inactive)
- EC50 (cells [5]): > 29.9 µM (inactive)

Compound: O=C(COc1cccc(-n2cnnn2)c1)Nc1ccccc1
- IC50 [1]: 38.2 µM (inactive)
- IC50 [2]: 76 µM (inactive)
- IC50 [3]: 83.3 µM (inactive)

Compound: CCOC(=O)C1CCCN(C(=O)c2cc(Nc3ccc(OC)cc3)nc3ccccc23)C1 (configuration not stated)
- AC50 [6]: 30.5 µM (active)

Compound: Clc1ccc(Cn2cc(/C=N/n3cnnc3)c3ccccc32)c(Cl)c1
- IC50 [7]: 12.9 µM (inactive)

Compound: CCOc1ccc(C(=O)Nc2cccc(-c3cc4ccccc4oc3=O)c2)cc1[N+](=O)[O-]
- AC50 (Cytochrome P450 1A2): 5.62 µM (inconclusive)
- IC50 [7]: 37.9 µM (inactive)
- AC50 (Cytochrome P450 3A4): 10 µM (inconclusive)

Compound: CCOc1ccc2c(c1)[N+](C)(C)C(C)(C)C=C2C
- IC50 [8]: 2.96 µM (active)
- EC50 [9]: > 195 µM (not active)
- IC50 [10]: 3.2 µM (active)

Compound: O=C(Cc1ccc(Cl)c(Cl)c1)Nc1cccc(S(=O)(=O)N2CCOCC2)c1
- IC50 [1]: 4.48 µM (active)
- IC50 [2]: 7.78 µM (active)
- IC50 [3]: 34.8 µM (inactive)

Compound: O=C(O)c1cccc(-n2cccc2/C=C\[N+](=O)[O-])c1
- EC50 [11]: 40.8 µM (active)
- AC50 [12]: > 20 µM (inactive)
- EC50 [13]: 83.7 µM (active)

Compound: COc1ccc(/C=N/CC2OCCc3ccccc32)cc1OC (configuration not stated)
- IC50 (cells [4]): > 29.9 µM (inactive)
- EC50 (cells [5]): > 29.9 µM (inactive)

Compound: OC(c1cc(Cl)cc(Cl)c1)c1nc(-c2cccc(F)c2)c[nH]1 (configuration not stated)
- IC50 [1]: 7.94 µM (active)
- IC50 [2]: 10.6 µM (inactive)
- IC50 [3]: 83.3 µM (inactive)
